# US10160755B2 (Plexxikon Inc., priority 2015, dated 2018)
# Experiments:
# FLT3-ITD = target: T1, FLT3-ITD (Homo sapiens, UniProt P36888); test: FLT3-ITD biochemical kinase assay (AlphaScreen)
# T1 construct: FLT3-ITD; Invitrogen #PV6190
# T1 sequence (P36888 1-993): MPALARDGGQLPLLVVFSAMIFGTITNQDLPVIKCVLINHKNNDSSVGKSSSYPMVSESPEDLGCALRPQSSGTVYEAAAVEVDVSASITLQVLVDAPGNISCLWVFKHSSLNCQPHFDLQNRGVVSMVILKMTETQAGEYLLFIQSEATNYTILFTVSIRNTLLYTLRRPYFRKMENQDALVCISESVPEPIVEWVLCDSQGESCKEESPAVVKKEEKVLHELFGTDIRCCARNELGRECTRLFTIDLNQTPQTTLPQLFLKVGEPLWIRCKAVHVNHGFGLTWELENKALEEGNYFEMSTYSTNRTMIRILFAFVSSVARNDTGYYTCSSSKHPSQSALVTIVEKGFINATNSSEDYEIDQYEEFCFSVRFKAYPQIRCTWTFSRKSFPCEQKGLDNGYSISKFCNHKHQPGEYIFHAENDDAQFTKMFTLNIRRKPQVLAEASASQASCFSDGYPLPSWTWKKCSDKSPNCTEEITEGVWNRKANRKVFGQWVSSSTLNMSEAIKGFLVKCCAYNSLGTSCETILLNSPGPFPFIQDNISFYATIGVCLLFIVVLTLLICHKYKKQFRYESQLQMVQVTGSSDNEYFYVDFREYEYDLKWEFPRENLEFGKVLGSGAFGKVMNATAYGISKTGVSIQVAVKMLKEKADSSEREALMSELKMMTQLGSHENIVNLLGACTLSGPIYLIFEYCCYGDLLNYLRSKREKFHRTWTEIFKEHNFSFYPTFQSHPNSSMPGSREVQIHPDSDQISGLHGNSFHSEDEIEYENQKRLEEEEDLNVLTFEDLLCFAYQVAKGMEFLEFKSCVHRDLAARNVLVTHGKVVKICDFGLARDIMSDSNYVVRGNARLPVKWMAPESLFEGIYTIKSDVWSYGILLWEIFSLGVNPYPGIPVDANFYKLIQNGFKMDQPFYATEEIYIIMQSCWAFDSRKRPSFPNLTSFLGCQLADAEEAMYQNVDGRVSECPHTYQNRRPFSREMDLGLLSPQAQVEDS
# Procedure, shortened: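 Recombinant kinase, biotin-GG(EEEEY)10EE 30 nM final, ATP 10 μM (D835Y) / 100 μM (ITD). Stop/detect: SA donor beads 20 min RT, then PY20 acceptor beads 60 min RT. AlphaScreen 580 nm signal; IC50.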
# FLT3-D835Y = target: T2, FLT3-D835Y (Homo sapiens, UniProt P36888, D835Y); test: FLT3-D835Y biochemical kinase assay (AlphaScreen)
# T2 construct: purchased Invitrogen PV3967
# T2 sequence (P36888 27-993 D835Y): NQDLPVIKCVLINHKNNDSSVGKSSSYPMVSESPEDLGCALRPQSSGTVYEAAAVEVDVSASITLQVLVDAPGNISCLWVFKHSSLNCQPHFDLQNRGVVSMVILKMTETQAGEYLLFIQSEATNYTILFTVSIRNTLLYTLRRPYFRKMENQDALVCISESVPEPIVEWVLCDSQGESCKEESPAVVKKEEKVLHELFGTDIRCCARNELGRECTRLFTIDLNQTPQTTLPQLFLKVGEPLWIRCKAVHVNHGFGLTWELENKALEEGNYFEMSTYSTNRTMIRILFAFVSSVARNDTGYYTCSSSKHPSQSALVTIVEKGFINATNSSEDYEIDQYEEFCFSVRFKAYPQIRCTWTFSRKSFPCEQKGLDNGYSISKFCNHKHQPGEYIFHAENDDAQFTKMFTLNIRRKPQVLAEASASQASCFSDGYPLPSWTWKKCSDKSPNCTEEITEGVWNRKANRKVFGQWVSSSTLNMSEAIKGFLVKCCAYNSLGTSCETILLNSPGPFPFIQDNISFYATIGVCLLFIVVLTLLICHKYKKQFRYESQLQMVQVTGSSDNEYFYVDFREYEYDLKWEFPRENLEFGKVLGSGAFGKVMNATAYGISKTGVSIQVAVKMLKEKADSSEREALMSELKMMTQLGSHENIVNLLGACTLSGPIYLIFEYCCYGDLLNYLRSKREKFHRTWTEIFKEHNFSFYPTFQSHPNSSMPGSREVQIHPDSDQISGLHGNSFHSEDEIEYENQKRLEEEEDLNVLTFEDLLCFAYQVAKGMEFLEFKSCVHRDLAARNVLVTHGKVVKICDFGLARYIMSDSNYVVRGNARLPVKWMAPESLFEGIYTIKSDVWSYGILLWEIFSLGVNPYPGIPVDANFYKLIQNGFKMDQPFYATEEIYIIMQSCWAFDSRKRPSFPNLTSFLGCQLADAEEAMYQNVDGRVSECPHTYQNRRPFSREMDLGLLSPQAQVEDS
# Source text: In order to determine the effect of compounds on FLT3 catalytic activity, kinase assays using recombinant enzymes and AlphaScreen® technology have been established. When the kinases are catalytically active, they phosphorylate a biotinylated peptide substrate on tyrosine residues. Using AlphaScreen® technology, the ability of the compounds to affect the catalytic activity of the kinases can be measured quantitatively. The peptide substrate is immobilized by the AlphaScreen® Streptavidin Donor beads and, upon phosphorylation by a tyrosine kinase, can bind to AlphaScreen® Anti-Phosphotyrosine (PY20) Acceptor beads. Upon excitation of these beads with laser light at 680 nm, singlet oxygen is produced. This singlet oxygen is rapidly quenched, unless the AlphaScreen® Anti-Phosphotyrosine (PY20) Acceptor beads are in close proximity, in which case a proximity signal can be measured at 580 nm. In the presence of catalytic activity, there is a very strong proximity signal. Selective kinase inhibitors affect a decrease in this proximity signal through a decrease in tyrosine phosphorylation of the peptide substrate.
# Substrate • Poly (Glu4-Tyr) Peptide, biotin conjugate [Biotin-GG(EEEEY)10EE (SEQ ID NO: 4)] • UBI/Millipore #12-440 • Final concentration=30 nM
# Adenosine Triphosphate (ATP) • Sigma #A-3377 • Final concentration for IC50 determination=10 μM (FLT3-D835Y) or 100 μM (FLT3 or FLT3-ITD) • Detection Reagent • AlphaScreen® Phosphotyrosine (PY20) Assay Kit • Perkin-Elmer #6760601M • Final concentration=10 μg/mL
# Centrifuge 1 minute, shake to mix, and incubate as follows:
# • Mix Streptavidin Donor beads at 6× final concentration in Stop/Detection buffer. • Add 5 μL Streptavidin Donor beads to the reaction plate. Centrifuge 1 minute, shake to mix, and incubate at room temperature for 20 minutes. • Mix Anti-Phosphotyrosine (PY20) Acceptor beads at 6× final concentration in Stop/Detection buffer. • Add 5 μL Anti-Phosphotyrosine (PY20) beads to the reaction plate. • Centrifuge 1 minute, shake to mix, and incubate at room temperature for 60 minutes. • Read plate on Wallac EnVision™ 2103 Multilabel Reader. In Vivo Model System Testing
Compound,IC50 (FLT3-ITD) [µM],IC50 (FLT3-D835Y) [µM]
"CC(C)(C)n1cnc2ccc(-c3c[nH]c4ncc(-c5cnc(C(F)(F)F)nc5)nc34)cc21 [P-343, 7-(3-tert-butylbenzimidazol-5-yl)-2-[2-(trifluoromethyl)pyrimidin-5-yl]-5H-pyrrolo[2,3-b]pyrazine]",0.0001 to 1,0.0001 to 1
"CC(C)(C)n1cnc2ccc(-c3c[nH]c4ncc(-c5ccc(C6CC6)nc5)nc34)cc21 [P-353, 7-(3-tert-butylbenzimidazol-5-yl)-2-(6-cyclopropyl-3-pyridyl)-5H-pyrrolo[2,3-b]pyrazine]",0.0001 to 1,0.0001 to 1
"COC(=O)c1cc(-c2cnc3[nH]cc(-c4ccc5ncsc5c4)c3n2)ccc1C [P-165, methyl 5-[7-(1,3-benzothiazol-6-yl)-5H-pyrrolo[2,3-b]pyrazin-2-yl]-2-methyl-benzoate]",0.0001 to 1,0.0001 to 1
"COc1cc(-c2cnc3[nH]cc(-c4ccc5ncn(C6CCCNC6)c5c4)c3c2)cc(OC)n1 (centres unmarked) [P-197, 5-(2,6-dimethoxy-4-pyridyl)-3-[3-(3-piperidyl)benzimidazol-5-yl]-1H-pyrrolo[2,3-b]pyridine]",0.0001 to 1,0.0001 to 1
"COc1cc(-c2cnc3[nH]cc(-c4ccc5c(c4)N(C(C)C)CCO5)c3n2)ccn1 [P-187, 4-isopropyl-6-[2-(2-methoxy-4-pyridyl)-5H-pyrrolo[2,3-b]pyrazin-7-yl]-2,3-dihydro-1,4-benzoxazine]",0.0001 to 1,0.0001 to 1
"CC(C)(C)n1cnc2ccc(-c3c[nH]c4ncc(-c5ccc(F)nc5)nc34)cc21 [P-360, 7-(3-tert-butylbenzimidazol-5-yl)-2-(6-fluoro-3-pyridyl)-5H-pyrrolo[2,3-b]pyrazine]",0.0001 to 1,0.0001 to 1
"COc1cc(-c2cnc3[nH]cc(-c4ccc5ncn(C)c5c4)c3n2)ccc1Cl [P-149, 2-(4-chloro-3-methoxy-phenyl)-7-(3-methylbenzimidazol-5-yl)-5H-pyrrolo[2,3-b]pyrazine]",0.0001 to 1,0.0001 to 1
"COc1cc(-c2cnc3[nH]cc(-c4ccc5ncn(C(C)(C)C)c5c4)c3c2)cc(OC)n1 [P-196, 1-tert-butyl-6-[5-(2,6-dimethoxy-4-pyridyl)-1H-pyrrolo[2,3-b]pyridin-3-yl]benzimidazole]",0.0001 to 1,0.0001 to 1
"COc1cc(-c2cnc3[nH]cc(-c4ccc5ncn(CC(F)(F)F)c5c4)c3c2)ccn1 [P-108, 5-(2-methoxy-4-pyridyl)-3-[3-(2,2,2-trifluoroethyl)benzimidazol-5-yl]-1H-pyrrolo[2,3-b]pyridine]",0.0001 to 1,0.0001 to 1
"CC(C)(C)n1cnc2ccc(-c3c[nH]c4ncc(-c5cccc(C#N)c5)cc34)cc21 [P-199, 3-[3-(3-tert-butylbenzimidazol-5-yl)-1H-pyrrolo[2,3-b]pyridin-5-yl]benzonitrile]",0.0001 to 1,0.0001 to 1
"CC(C)(C)n1cnc2ccc(-c3c[nH]c4ncc(-c5ccnc(C6CC6)c5)nc34)cc21 [P-351, 7-(3-tert-butylbenzimidazol-5-yl)-2-(2-cyclopropyl-4-pyridyl)-5H-pyrrolo[2,3-b]pyrazine]",0.0001 to 1,0.0001 to 1
"O=S(=O)(Nc1cnc2[nH]cc(-c3ccc4ncn(C5CCCNC5)c4c3)c2c1)c1cccc(OC(F)(F)F)c1 (centres unmarked) [P-212, N-[3-[3-(3-piperidyl)benzimidazol-5-yl]-1H-pyrrolo[2,3-b]pyridin-5-yl]-3-(trifluoromethoxy)benzenesulfonamide]",0.0001 to 1,0.0001 to 1
"COc1cc(-c2cnc3[nH]cc(-c4ccc5ncn(C6CCCNC6)c5c4)c3c2)ccn1 (centres unmarked) [P-138, 5-(2-methoxy-4-pyridyl)-3-[3-(3-piperidyl)benzimidazol-5-yl]-1H-pyrrolo[2,3-b]pyridine]",0.0001 to 1,0.0001 to 1
"FC(F)(F)Cn1cc(-c2cnc3[nH]cc(-c4ccc5ncsc5c4)c3n2)cn1 [P-166, 6-[2-[1-(2,2,2-trifluoroethyl)pyrazol-4-yl]-5H-pyrrolo[2,3-b]pyrazin-7-yl]-1,3-benzothiazole]",0.0001 to 1,0.0001 to 1
"COc1cc(-c2cnc3[nH]cc(-c4ccc5ncn(C(C)(C)C)c5c4)c3n2)cc(OC)n1 [P-194, 7-(3-tert-butylbenzimidazol-5-yl)-2-(2,6-dimethoxy-4-pyridyl)-5H-pyrrolo[2,3-b]pyrazine]",0.0001 to 1,0.0001 to 1
"Cn1cnc2ccc(-c3c[nH]c4ncc(-c5cnn(-c6ccccn6)c5)cc34)cc21 [P-174, 1-methyl-6-[5-[1-(2-pyridyl)pyrazol-4-yl]-1H-pyrrolo[2,3-b]pyridin-3-yl]benzimidazole]",0.0001 to 1,0.0001 to 1
"O=C(O)Cc1cccc(-c2cnc3[nH]cc(-c4ccc5ncsc5c4)c3n2)c1 [P-164, 2-[3-[7-(1,3-benzothiazol-6-yl)-5H-pyrrolo[2,3-b]pyrazin-2-yl]phenyl]acetic acid]",0.0001 to 1,0.0001 to 1
"Cn1cnc2ccc(-c3c[nH]c4ncc(-c5cnn(CC(F)(F)F)c5)nc34)cc21 [P-176, 7-(3-methylbenzimidazol-5-yl)-2-[1-(2,2,2-trifluoroethyl)pyrazol-4-yl]-5H-pyrrolo[2,3-b]pyrazine]",0.0001 to 1,0.0001 to 1
"COc1cc(-c2cnc3[nH]cc(-c4ccc5ncn(C(C)(C)C)c5c4)c3n2)ccc1C#N [P-354, 4-[7-(3-tert-butylbenzimidazol-5-yl)-5H-pyrrolo[2,3-b]pyrazin-2-yl]-2-methoxy-benzonitrile]",0.0001 to 1,0.0001 to 1
